Reference: patent US10517889B2, “Modulators of SMAD7 expression” (Ionis Pharmaceuticals, Inc., priority 2017, dated 2019)
Strand notation (5' to 3'): a small letter for the sugar, then the base; units joined by * are phosphorothioate-linked, units joined directly phosphodiester-linked; [ ] holds rarer units or linkages, { } end groups; capitals alone tell only the bases. k = constrained ethyl (cEt); [5mC] = 5-methylcytosine; d = 2'-deoxy (DNA)

Tested on: human SMAD7 mRNA
Assay: Antisense inhibition of human SMAD7 mRNA expression in Hep3B cells by 3-10-3 cEt gapmers, 10,000 nM, electroporation (Example 2)
Type: cell-based
Conditions: approximately 24 hours
Procedure, shortened: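 Percent inhibition of SMAD7 mRNA, relative to untreated cells, after ~24 h exposure of electroporated Hep3B cells to 10,000 nM cEt gapmer; levels by qRT-PCR, corrected for total RNA.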

[1] = Hep3B cells, 10,000 nM antisense oligonucleotide, electroporation, RT-PCR primer probe set RTS5062, relative to untreated control cells
[2] = Hep3B cells, electroporation with 10,000 nM antisense oligonucleotide, SMAD7 mRNA by RT-PCR (RTS5062), relative to untreated control cells

| Substance | % Inhibition [1] [%] | % Inhibition [2] [%] |
| --- | --- | --- |
| 798840 (k[5mC]*kT*k[5mC]*dT*dT*dG*dT*dT*dG*dT*d[5mC]*d[5mC]*dG*kA*kA*kT; antisense) [compound 798840] | 56 | – |
| 798841 (k[5mC]*kT*kG*dA*d[5mC]*dT*d[5mC]*dT*dT*dG*dT*dT*dG*kT*k[5mC]*k[5mC]; antisense) [compound 798841] | 0 | – |
| 798842 (k[5mC]*kA*kG*d[5mC]*dT*dG*dA*d[5mC]*dT*d[5mC]*dT*dT*dG*kT*kT*kG; antisense) [compound 798842] | 0 | – |
| 798843 (k[5mC]*kT*kG*d[5mC]*dA*d[5mC]*d[5mC]*dA*dG*d[5mC]*dT*dG*dA*k[5mC]*kT*k[5mC]; antisense) [compound 798843] | – | 37 |
| 798844 (kA*k[5mC]*k[5mC]*dT*dT*d[5mC]*dT*dG*d[5mC]*dA*d[5mC]*d[5mC]*dA*kG*k[5mC]*kT; antisense) [compound 798844] | – | 30 |
| 798845 (k[5mC]*kG*k[5mC]*dA*d[5mC]*d[5mC]*dT*dT*d[5mC]*dT*dG*d[5mC]*dA*k[5mC]*k[5mC]*kA; antisense) [compound 798845] | – | 18 |
| 798846 (k[5mC]*kT*k[5mC]*d[5mC]*dG*d[5mC]*dA*d[5mC]*d[5mC]*dT*dT*d[5mC]*dT*kG*k[5mC]*kA; antisense) [compound 798846] | – | 40 |
| 798847 (kT*kT*kG*d[5mC]*dT*d[5mC]*d[5mC]*dG*d[5mC]*dA*d[5mC]*d[5mC]*dT*kT*k[5mC]*kT; antisense) [compound 798847] | – | 24 |
| 798848 (kG*kA*kT*dT*dT*dT*dG*d[5mC]*dT*d[5mC]*d[5mC]*dG*d[5mC]*kA*k[5mC]*k[5mC]; antisense) [compound 798848] | – | 40 |
| 798849 (k[5mC]*kA*kG*d[5mC]*d[5mC]*dG*dA*dT*dT*dT*dT*dG*d[5mC]*kT*k[5mC]*k[5mC]; antisense) [compound 798849] | – | 21 |
| 798850 (k[5mC]*kA*kG*d[5mC]*dT*dG*dG*dA*dT*dG*d[5mC]*d[5mC]*dG*k[5mC]*kA*kG; antisense) [compound 798850] | – | 12 |
| 798851 (kA*k[5mC]*k[5mC]*dA*dT*d[5mC]*d[5mC]*dA*d[5mC]*d[5mC]*dT*d[5mC]*d[5mC]*k[5mC]*kG*k[5mC]; antisense) [compound 798851] | – | 21 |
| 798853 (k[5mC]*k[5mC]*kA*d[5mC]*dA*d[5mC]*dA*d[5mC]*d[5mC]*dA*dT*d[5mC]*d[5mC]*kA*k[5mC]*k[5mC]; antisense) [compound 798853] | 7 | – |
| 798854 (kT*kA*k[5mC]*dA*d[5mC]*d[5mC]*d[5mC]*dA*d[5mC]*dA*d[5mC]*dA*d[5mC]*k[5mC]*kA*kT; antisense) [compound 798854] | 25 | – |
| 798855 (kT*kT*kG*dT*dA*d[5mC]*dA*d[5mC]*d[5mC]*d[5mC]*dA*d[5mC]*dA*k[5mC]*kA*k[5mC]; antisense) [compound 798855] | 11 | – |
| 798856 (kT*kG*k[5mC]*dG*dG*dT*dT*dG*dT*dA*d[5mC]*dA*d[5mC]*k[5mC]*k[5mC]*kA; antisense) [compound 798856] | 67 | – |
| 798857 (kT*kG*k[5mC]*dT*dG*d[5mC]*dG*dG*dT*dT*dG*dT*dA*k[5mC]*kA*k[5mC]; antisense) [compound 798857] | 11 | – |
| 798858 (kG*kG*kT*dA*dA*d[5mC]*dT*dG*d[5mC]*dT*dG*d[5mC]*dG*kG*kT*kT; antisense) [compound 798858] | 46 | – |
| 798859 (k[5mC]*kG*kG*dA*d[5mC]*dT*dT*dG*dA*dT*dG*dA*dA*kG*kA*kT; antisense) [compound 798859] | 14 | – |
| 798860 (kT*kG*kG*d[5mC]*dG*dG*dA*d[5mC]*dT*dT*dG*dA*dT*kG*kA*kA; antisense) [compound 798860] | 22 | – |
| 798861 (kG*kT*kG*dT*dG*dG*d[5mC]*dG*dG*dA*d[5mC]*dT*dT*kG*kA*kT; antisense) [compound 798861] | – | 24 |
